Activity calls are given as the source filed them. The rule behind the calls is not given here.
Legend:
[1] = tested on: KMS-12-BM; experiment: Effect on human KMS-12-BM cells assessed as increase in cleaved PARP level at 10 uM incubated for 24 hrs by Western blot analysis; format: functional, cell-based
[2] = organism: Homo sapiens; experiment: Inhibition of human EZH2 complex at 100 uM using core histone as substrate incubated for 1 hr in presence of [3H]-SAM by filter binding method relative to control
[3] = tested on: MDA-MB-231; experiment: Induction of apoptosis in human MDA-MB-231 cells assessed as necrotic cells at 9 uM incubated for 48 hrs by Annexin V-FITC/PI staining by flow cytometric analysis (reference value: 15%); format: functional
[4] = tested on: NCI-H929; experiment: Antiproliferative activity against human NCI-H929 cells incubated for 48 hrs by CellTiter-Glo luminescent cell viability assay; format: functional, cell-based; conditions: NCI-H929, 48 h
[5] = tested on: Plasmodium falciparum; experiment: microbe, parasite or virus in culture; format: functional, organism-based; conditions: 3D7, 48 h
Description: Antimalarial activity against ring stage Plasmodium falciparum 3D7 incubated for 48 hrs by Hoechst 33342 staining based fluorescence based assay

[6] = molecular target: T1, Protein deacetylase HDAC6 (Homo sapiens, UniProt Q9UBN7); experiment: Inhibition of human HDAC6 using Arg-His-Lys-Lys (Ac) as substrate incubated for 2 hrs by fluorescence assay
T1 sequence (Q9UBN7 whole entry): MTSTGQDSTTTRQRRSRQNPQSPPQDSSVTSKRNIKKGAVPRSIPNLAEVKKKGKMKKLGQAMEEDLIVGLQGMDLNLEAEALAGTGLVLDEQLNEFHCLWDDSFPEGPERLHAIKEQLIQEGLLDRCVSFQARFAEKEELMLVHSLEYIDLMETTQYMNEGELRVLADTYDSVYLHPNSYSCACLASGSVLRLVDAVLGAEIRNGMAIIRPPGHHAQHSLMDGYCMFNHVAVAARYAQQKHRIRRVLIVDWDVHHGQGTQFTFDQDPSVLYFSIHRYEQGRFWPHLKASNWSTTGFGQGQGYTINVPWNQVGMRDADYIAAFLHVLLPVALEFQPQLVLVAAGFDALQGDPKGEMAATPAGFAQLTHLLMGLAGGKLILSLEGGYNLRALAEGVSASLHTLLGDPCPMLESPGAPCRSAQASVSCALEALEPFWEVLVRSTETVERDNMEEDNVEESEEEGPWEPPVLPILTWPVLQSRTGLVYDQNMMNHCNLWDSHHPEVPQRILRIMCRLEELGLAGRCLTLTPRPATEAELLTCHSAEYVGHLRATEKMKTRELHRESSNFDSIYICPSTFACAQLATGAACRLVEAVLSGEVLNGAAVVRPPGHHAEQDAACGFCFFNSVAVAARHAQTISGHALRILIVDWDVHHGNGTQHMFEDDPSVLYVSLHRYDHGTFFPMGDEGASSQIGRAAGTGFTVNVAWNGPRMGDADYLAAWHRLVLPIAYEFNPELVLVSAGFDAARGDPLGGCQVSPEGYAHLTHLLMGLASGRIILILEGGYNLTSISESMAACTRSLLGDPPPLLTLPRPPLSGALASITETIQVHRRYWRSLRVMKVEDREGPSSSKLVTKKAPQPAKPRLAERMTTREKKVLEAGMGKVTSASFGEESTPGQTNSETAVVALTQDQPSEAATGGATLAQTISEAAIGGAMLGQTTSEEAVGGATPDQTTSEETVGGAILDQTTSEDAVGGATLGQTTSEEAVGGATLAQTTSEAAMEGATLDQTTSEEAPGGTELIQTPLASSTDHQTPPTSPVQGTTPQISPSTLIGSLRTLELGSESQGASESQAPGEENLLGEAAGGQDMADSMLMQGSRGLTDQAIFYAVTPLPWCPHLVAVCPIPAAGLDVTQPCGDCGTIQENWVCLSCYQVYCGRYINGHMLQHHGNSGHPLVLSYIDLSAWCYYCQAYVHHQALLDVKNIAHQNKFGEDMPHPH

[7] = molecular target: Histone deacetylase 4 (Homo sapiens) (UniProt P56524); experiment: Inhibition of human HDAC4 at 10 uM using Acetyl-Lys (trifluoroacetyl)-AMC) as substrate incubated for 2 hrs by fluorescence assay relative to control
[8] = tested on: MCF7; experiment: Antiproliferative activity against human MCF7 cells incubated for 72 hrs by MTT assay; format: functional, cell-based; conditions: MCF7, 72 h
[9] = Intrinsic clearance in female rat liver microsomes at 3 uM preincubated for 5 mins followed by NADPH addition and measured up to 45 mins by LC-MS/MS analysis; format: ADME, Microsome
[10] = molecular target: Histone-lysine N-methyltransferase, H3 lysine-79 specific (Homo sapiens) (UniProt Q8TEK3); experiment: Inhibition of human DOT1L at 100 uM using oligo nucleosomes as substrate incubated for 1 hr in presence of [3H]-SAM by filter binding method relative to control
[11] = Half life in female rat liver microsomes at 3 uM preincubated for 5 mins followed by NADPH addition and measured up to 45 mins by LC-MS/MS analysis; format: ADME, Microsome
[12] = Therapeutic Index, ratio of EC50 for mouse TAMH cells to EC50 for human MDA-MB-231 cells; format: toxicity; conditions: TAMH cells versus MDA-MB-231 cells, read-out: Ratio EC50
[13] = molecular target: Protein arginine N-methyltransferase 1 (Homo sapiens) (UniProt Q99873); experiment: Inhibition of human PRMT1 at 100 uM using histone H4 as substrate incubated for 1 hr in presence of [3H]-SAM by filter binding method relative to control
[14] = organism: Homo sapiens; experiment: Selectivity ratio of IC50 for inhibition of human HDAC2 to IC50 for inhibition of human HDAC3
[15] = molecular target: Histone-lysine N-methyltransferase EHMT2 (Homo sapiens, UniProt Q96KQ7); experiment: Inhibition of human G9a using core histone H3 (1 to 21 residues) as substrate incubated for 1 hr in presence of [3H]-SAM by filter binding method
[16] = molecular target: Histone-lysine N-methyltransferase EHMT2 (Homo sapiens) (UniProt Q96KQ7); experiment: Inhibition of human G9a at 100 uM using core histone H3 (1 to 21 residues) as substrate incubated for 1 hr in presence of [3H]-SAM by filter binding method relative to control
[17] = tested on: MDA-MB-231; experiment: Induction of apoptosis in human MDA-MB-231 cells assessed as early apoptotic cells at 9 uM incubated for 48 hrs by Annexin V-FITC/PI staining by flow cytometric analysis (reference value: 5%); format: functional
[18] = Effective permeability of the compound at pH 7.4 measured after 6 hrs by PAMPA assay; format: ADME; conditions: read-out: Peff
[19] = Genotoxicity in Salmonella typhimurium TA98 in presence of S9 fraction incubated for 48 hrs by Ames test relative to control; format: toxicity, subcellular; conditions: salmonella enterica subsp. enterica serovar typhimurium, s9, 48 h
[20] = tested on: MDA-MB-231; experiment: Induction of apoptosis in human MDA-MB-231 cells assessed as early apoptotic cells at 6 uM incubated for 48 hrs by Annexin V-FITC/PI staining by flow cytometric analysis (reference value: 5%); format: functional
[21] = molecular target: Histone deacetylase 3 (Homo sapiens, UniProt O15379); experiment: Inhibition of human HDAC3 using Arg-His-Lys-Lys (Ac) as substrate incubated for 2 hrs by fluorescence assay
[22] = Effective permeability of the compound at pH 7.4 measured after 16 hrs by PAMPA assay; format: ADME; conditions: read-out: Peff

Chain of Histone-lysine N-methyltransferase EHMT2 (Q96KQ7 whole entry, the tested form may be a part): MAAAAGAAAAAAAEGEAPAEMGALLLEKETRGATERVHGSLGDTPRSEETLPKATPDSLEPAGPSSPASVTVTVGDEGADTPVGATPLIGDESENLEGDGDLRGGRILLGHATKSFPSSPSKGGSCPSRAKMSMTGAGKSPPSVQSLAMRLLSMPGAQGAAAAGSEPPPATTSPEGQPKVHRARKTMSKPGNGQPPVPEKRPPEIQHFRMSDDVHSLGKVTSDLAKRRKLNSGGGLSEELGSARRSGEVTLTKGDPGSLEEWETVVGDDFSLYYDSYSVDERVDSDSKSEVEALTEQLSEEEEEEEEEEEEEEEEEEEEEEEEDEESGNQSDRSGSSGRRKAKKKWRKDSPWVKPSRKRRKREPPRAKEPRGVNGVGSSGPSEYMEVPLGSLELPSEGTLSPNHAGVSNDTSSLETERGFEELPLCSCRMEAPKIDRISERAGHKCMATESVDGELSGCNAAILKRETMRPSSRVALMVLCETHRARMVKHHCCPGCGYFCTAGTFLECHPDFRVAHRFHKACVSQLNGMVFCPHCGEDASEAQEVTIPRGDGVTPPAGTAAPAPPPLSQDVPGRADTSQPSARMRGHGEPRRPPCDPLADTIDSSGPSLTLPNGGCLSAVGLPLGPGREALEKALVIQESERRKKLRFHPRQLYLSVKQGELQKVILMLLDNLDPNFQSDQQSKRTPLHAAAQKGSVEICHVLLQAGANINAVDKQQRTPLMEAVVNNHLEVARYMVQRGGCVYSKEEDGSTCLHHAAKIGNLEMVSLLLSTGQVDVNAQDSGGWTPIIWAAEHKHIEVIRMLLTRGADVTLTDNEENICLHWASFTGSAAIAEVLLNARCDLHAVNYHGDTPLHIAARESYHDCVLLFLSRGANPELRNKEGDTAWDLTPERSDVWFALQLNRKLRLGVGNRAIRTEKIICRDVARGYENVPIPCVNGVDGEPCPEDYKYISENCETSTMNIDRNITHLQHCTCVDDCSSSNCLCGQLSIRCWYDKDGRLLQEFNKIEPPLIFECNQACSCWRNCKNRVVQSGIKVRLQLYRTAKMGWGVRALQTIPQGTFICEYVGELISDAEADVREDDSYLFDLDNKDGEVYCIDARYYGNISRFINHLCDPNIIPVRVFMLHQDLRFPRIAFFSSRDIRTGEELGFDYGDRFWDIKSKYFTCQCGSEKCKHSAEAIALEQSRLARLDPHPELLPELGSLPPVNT
Chain of Histone-lysine N-methyltransferase EHMT2 (Homo sapiens) (Q96KQ7 whole entry, the tested form may be a part): as above
Chain of Histone deacetylase 4 (Homo sapiens) (P56524 whole entry): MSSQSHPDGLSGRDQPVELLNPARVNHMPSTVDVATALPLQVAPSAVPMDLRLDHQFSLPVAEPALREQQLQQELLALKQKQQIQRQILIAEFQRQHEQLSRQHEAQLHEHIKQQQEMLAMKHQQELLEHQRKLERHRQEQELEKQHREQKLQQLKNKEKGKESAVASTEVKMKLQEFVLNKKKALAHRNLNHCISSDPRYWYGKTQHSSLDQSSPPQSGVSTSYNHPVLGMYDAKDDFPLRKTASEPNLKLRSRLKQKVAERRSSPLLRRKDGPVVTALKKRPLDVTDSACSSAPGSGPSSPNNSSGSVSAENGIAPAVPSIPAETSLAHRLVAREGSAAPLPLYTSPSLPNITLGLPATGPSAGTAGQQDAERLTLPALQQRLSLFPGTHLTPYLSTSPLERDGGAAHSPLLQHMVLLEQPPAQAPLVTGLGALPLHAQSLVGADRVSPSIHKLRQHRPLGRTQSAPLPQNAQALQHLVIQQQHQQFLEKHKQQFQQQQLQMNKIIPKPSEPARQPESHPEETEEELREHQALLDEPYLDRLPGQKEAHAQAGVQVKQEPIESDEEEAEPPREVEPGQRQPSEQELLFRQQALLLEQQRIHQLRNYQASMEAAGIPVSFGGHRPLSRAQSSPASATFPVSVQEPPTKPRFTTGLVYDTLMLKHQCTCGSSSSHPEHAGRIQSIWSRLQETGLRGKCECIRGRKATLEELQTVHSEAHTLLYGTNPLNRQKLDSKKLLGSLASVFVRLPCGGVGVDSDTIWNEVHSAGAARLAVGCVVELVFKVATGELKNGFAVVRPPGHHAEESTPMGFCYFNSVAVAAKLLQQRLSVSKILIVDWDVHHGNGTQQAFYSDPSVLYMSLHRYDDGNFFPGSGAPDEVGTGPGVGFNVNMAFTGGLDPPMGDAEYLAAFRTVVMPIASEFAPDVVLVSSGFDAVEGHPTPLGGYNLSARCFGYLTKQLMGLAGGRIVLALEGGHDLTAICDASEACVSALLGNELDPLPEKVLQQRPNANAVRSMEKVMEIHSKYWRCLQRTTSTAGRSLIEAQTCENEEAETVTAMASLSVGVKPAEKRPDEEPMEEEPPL
Chain of Histone-lysine N-methyltransferase, H3 lysine-79 specific (Homo sapiens) (Q8TEK3 whole entry, looked up): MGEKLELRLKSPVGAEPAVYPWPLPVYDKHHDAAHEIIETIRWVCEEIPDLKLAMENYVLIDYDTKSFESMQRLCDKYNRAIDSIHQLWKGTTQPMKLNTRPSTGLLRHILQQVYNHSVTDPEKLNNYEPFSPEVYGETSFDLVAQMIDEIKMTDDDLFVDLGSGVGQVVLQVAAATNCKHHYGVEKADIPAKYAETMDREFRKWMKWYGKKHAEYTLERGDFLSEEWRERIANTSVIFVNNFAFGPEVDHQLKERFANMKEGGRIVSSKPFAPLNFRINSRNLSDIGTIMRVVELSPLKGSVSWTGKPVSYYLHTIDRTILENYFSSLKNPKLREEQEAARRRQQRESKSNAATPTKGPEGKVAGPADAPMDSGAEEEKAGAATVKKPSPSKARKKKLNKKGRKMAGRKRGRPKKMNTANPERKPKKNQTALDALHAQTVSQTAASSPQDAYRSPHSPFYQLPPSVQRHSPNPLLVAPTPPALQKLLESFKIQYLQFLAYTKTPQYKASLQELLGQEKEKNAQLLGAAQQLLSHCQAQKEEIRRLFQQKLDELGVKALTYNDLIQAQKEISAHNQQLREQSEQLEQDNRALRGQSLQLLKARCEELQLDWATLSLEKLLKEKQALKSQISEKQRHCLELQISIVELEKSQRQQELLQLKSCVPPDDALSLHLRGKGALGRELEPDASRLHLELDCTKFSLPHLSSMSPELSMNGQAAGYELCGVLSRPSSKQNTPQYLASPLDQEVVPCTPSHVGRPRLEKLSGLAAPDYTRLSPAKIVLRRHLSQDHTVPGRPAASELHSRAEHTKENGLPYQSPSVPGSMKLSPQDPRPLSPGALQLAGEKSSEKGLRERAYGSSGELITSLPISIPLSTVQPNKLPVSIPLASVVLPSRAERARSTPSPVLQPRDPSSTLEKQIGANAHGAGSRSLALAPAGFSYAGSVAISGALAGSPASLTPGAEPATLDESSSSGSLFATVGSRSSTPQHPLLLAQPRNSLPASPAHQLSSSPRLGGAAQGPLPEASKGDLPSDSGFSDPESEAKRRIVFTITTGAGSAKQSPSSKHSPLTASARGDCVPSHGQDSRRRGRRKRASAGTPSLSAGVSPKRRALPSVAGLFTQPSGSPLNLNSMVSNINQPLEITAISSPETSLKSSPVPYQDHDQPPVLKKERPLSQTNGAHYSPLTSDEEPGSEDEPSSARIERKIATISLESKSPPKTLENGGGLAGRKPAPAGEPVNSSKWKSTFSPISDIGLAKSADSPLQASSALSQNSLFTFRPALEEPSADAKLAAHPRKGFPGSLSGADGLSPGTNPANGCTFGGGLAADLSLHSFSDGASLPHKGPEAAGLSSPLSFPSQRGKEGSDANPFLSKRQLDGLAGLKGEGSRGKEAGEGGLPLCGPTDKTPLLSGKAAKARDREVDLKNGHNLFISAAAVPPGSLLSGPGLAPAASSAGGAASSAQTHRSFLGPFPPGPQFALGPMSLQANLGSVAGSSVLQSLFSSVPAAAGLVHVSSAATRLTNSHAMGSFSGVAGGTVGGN
Chain of Protein arginine N-methyltransferase 1 (Homo sapiens) (Q99873 whole entry, looked up): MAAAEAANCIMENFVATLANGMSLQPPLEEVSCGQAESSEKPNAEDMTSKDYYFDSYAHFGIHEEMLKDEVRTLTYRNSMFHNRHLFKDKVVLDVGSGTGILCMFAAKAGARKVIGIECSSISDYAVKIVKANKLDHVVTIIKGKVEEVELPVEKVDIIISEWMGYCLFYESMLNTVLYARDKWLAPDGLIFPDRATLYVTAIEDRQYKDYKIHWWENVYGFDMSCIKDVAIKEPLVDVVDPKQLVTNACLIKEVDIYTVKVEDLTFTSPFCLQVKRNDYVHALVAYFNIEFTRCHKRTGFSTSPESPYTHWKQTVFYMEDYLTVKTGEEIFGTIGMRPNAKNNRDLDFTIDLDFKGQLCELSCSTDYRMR
Chain of Histone deacetylase 3 (O15379 whole entry): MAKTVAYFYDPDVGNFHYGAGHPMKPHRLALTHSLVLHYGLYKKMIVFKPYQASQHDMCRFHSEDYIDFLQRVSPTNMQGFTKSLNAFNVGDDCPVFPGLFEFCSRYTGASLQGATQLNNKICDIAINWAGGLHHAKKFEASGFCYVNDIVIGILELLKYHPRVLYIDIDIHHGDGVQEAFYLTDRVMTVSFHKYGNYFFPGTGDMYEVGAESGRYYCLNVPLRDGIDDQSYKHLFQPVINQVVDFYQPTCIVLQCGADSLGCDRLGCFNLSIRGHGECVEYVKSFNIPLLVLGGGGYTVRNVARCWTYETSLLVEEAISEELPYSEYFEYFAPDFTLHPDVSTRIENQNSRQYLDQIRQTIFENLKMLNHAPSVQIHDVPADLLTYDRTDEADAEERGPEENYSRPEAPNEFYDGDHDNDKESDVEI

inhibition [2]: 27%
EC50 [4]: 4.6 µM
IC50 [5]: 0.145 µM
IC50 [6]: 0.00257 µM
inhibition [7]: 20%
EC50 [8]: 7.3 µM
microsomal CLint at 3 µM [9]: 22.3 µL/min/mg
inhibition [10]: 16%
half-life at 3 µM [11]: 1.73 h
inhibition [13]: inactive
Ratio IC50 [14]: 26 to 33
EC50 [15]: 142 µM
inhibition [16]: 37%
Papp at 6 h [18]: 218 nm/s
IC50 [21]: 0.034 µM
Papp at 16 h [22]: 79 nm/s
SMILES: COc1ccc(CN2CCC(Nc3nc(Nc4ccc(NC(=O)CCCCCCC(=O)NO)cc4)nc4cc(OC)c(OC)cc34)CC2)cc1
Activity [1]: Active
Activity [3]: 8%
selectivity ratio [12]: 5
Activity [17]: 24%
Activity [19]: Non-Toxic
Activity [20]: 18%

— ChEMBL document CHEMBL4311997, “Discovery of a potent histone deacetylase (HDAC) 3/6 selective dual inhibitor” (Eur J Med Chem, 2019)
